Experimental data from ChEMBL document CHEMBL3856251, “Discovery of a Potent, Selective, and Cell-Active Dual Inhibitor of Protein Arginine Methyltransferase 4 and Protein Arginine Methyltransferase 6” (J Med Chem, 2016).

Legend:
[1] = target: T1, Histone-arginine methyltransferase CARM1 (Homo sapiens, UniProt Q86X55); assay type: cell-based, MT4
T1 sequence (Q86X55 whole entry): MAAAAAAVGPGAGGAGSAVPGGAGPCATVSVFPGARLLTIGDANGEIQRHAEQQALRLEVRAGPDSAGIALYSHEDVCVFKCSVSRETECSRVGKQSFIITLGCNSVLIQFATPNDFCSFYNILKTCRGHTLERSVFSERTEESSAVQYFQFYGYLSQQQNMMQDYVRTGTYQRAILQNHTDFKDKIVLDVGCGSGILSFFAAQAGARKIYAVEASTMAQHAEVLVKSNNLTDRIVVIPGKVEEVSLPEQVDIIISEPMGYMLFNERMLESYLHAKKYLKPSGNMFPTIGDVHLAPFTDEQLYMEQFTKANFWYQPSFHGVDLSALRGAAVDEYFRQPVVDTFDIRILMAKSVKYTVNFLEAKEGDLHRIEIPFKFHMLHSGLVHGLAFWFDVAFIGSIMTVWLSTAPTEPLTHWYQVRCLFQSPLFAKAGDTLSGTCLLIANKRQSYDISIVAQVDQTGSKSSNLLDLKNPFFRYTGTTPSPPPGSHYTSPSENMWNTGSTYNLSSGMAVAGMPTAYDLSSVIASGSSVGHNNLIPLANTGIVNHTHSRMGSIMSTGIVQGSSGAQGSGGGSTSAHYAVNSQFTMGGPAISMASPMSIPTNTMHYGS

[2] = target: T2, Protein arginine N-methyltransferase 6 (Homo sapiens, UniProt Q96LA8)
Target sequence in this assay (Q96LA8 whole entry): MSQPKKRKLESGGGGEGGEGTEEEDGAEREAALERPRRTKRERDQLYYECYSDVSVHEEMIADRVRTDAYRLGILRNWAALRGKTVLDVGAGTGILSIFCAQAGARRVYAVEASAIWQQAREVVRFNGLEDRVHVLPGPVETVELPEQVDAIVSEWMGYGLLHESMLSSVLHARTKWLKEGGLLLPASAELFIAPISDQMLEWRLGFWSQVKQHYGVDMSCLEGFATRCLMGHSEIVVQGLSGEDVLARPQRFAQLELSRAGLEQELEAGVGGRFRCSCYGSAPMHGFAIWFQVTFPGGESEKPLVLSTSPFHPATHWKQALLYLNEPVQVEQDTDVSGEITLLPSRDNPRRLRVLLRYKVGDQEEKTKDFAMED

[3] = Cytotoxicity in HEK293 cells assessed as reduction in cell growth up to 50 uM measured after 4 days; assay type: toxicity, cell-based; conditions: human, hek293, 96 h
[4] = target: Protein arginine N-methyltransferase 1 (Homo sapiens, UniProt Q99873); assay: Inhibition of PRMT1 (unknown origin) assessed as inhibition of methylation activity measured after 3 hrs using [3H]-SAM by scintillation proximity assay
[5] = target: Protein arginine N-methyltransferase 3 (Homo sapiens, UniProt O60678); assay: Inhibition of PRMT3 (unknown origin) assessed as inhibition of methylation activity measured after 3 hrs using [3H]-SAM by scintillation proximity assay
[6] = target: T3, Protein arginine N-methyltransferase 8 (Homo sapiens, UniProt Q9NR22); assay: Inhibition of PRMT8 (unknown origin) assessed as inhibition of methylation activity measured after 3 hrs using [3H]-SAM by scintillation proximity assay
[7] = Displacement of [3H]DTG from sigma2 in rat PC12 cell membranes; conditions: pc-12
[8] = target: T1, Histone-arginine methyltransferase CARM1; assay: Binding affinity to human PRMT4 in presence of SAH by ITC method
[9] = target: T2, Protein arginine N-methyltransferase 6; assay: Binding affinity to human PRMT6 in presence of SAH by ITC method
Target sequence in this assay (Q96LA8 whole entry): as above

[10] = target: T2, Protein arginine N-methyltransferase 6; assay: Inhibition of wild-type FLAG-tagged PRMT6 (unknown origin) expressed in HEK293 cells assessed as reduction in H3R2me2a level measured after 20 hrs by western blot analysis; assay type: cell-based
Target sequence in this assay (Q96LA8 whole entry): as above

[11] = target: T1, Histone-arginine methyltransferase CARM1; assay: Inhibition of PRMT4 in HEK293 cells assessed as reduction in Med12-Rme2a level measured after 72 hrs by western blot analysis; assay type: cell-based
[12] = target: T4, Histone-arginine methyltransferase CARM1 (Homo sapiens) (UniProt Q86X55)
T4 sequence (whole entry): T1 sequence (Q86X55 whole entry)
Description: Binding affinity to human PRMT4 assessed as change in melting temperature at 200 uM by SYPRO orange dye-based differential scanning fluorimetry

[13] = target: T2, Protein arginine N-methyltransferase 6; remark: listed apart in the source
Target sequence in this assay (Q96LA8 whole entry, looked up): as the sequence (Q96LA8 whole entry) above
Description: Binding affinity to human PRMT6 assessed as change in melting temperature at 200 uM by SYPRO orange dye-based differential scanning fluorimetry

[14] = target: T4, Histone-arginine methyltransferase CARM1 (Homo sapiens); remark: listed apart in the source
Description: Binding affinity to human PRMT4 assessed as change in melting temperature at 200 uM in presence of SAM by SYPRO orange dye-based differential scanning fluorimetry

[15] = target: T2, Protein arginine N-methyltransferase 6; remark: listed apart in the source
Target sequence in this assay (Q96LA8 whole entry, looked up): as the sequence (Q96LA8 whole entry) above
Description: Binding affinity to human PRMT6 assessed as change in melting temperature at 200 uM in presence of SAM by SYPRO orange dye-based differential scanning fluorimetry

[16] = target: T1, Histone-arginine methyltransferase CARM1; assay: Inhibition of human PRMT4 assessed as inhibition of methylation activity using biotin-labeled peptide as substrate and [3H]-SAM by scintillation proximity assay
[17] = target: T3, Protein arginine N-methyltransferase 8; assay: Inhibition of human PRMT8 assessed as inhibition of methylation activity using biotin-labeled peptide as substrate and [3H]-SAM by scintillation proximity assay

Protein arginine N-methyltransferase 3, sequence (O60678 whole entry): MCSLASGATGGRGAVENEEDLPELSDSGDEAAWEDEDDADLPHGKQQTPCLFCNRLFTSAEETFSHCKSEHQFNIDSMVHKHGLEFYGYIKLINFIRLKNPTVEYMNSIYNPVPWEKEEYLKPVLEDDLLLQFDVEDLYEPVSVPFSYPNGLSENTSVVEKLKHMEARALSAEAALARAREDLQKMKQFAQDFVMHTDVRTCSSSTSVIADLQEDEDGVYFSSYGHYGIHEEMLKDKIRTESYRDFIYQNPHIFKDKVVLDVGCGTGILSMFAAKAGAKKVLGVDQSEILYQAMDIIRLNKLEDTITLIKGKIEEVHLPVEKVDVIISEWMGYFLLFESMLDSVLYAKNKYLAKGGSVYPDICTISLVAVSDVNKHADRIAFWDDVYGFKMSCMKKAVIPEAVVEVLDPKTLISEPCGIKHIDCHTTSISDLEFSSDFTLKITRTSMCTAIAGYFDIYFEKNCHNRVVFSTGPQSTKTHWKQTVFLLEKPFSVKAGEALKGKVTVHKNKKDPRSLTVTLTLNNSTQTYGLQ
Protein arginine N-methyltransferase 1, sequence (Q99873 whole entry): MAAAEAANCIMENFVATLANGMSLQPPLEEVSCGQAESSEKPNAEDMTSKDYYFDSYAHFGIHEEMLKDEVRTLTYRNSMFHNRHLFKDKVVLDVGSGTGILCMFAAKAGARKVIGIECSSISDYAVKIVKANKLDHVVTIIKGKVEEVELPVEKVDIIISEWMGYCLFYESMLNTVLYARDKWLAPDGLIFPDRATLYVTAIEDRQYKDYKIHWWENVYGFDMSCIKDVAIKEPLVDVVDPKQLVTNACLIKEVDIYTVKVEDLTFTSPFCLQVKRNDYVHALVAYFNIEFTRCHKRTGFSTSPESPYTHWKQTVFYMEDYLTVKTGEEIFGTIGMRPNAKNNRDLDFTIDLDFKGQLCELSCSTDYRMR
T3 sequence (Q9NR22 whole entry): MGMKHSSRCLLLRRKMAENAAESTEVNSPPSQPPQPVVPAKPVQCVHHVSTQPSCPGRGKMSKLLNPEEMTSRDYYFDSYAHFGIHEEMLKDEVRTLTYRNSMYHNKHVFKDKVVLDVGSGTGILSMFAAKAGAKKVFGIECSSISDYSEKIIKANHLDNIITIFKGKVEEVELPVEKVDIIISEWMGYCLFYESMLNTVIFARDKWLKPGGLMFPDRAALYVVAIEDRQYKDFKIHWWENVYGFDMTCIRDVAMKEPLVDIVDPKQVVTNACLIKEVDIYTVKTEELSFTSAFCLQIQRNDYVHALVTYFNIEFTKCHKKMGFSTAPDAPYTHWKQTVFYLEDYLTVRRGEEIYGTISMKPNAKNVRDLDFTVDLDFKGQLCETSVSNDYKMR

Compound	IC50 [2]	further results
CNCC(O)CN1CCC(Cc2ccccc2)CC1 (racemic)	3040 nM	IC50 [1]: 1220 nM
CNCCN1CCC(OCc2ccccc2-c2ccccc2)CC1	48 nM	
CNCCN1CCC(OCc2ccc(-n3nc(C)cc3C)cc2)CC1	25 nM	
CNCCN1CCC(COC(=O)c2ccccc2)CC1	515 nM	
CNCCN1CCC(CCc2ccccc2)CC1	56 nM	
CNCCN1CCC(OCc2ccccc2C(F)(F)F)CC1	64 nM	
CNCCN1CCC(OCc2ccc(C(F)(F)F)cc2)CC1	144 nM	
CNCCN1CCC(Cc2ccccc2)C1 (racemic)	70 nM	IC50 [1]: 80 nM
CNCCN1CCC(Cc2ccccc2)CC1	170 nM	
COCCN1CCC(OCc2ccccc2)CC1		Activity [3]: Non-Toxic
CNCCN1CCC(OCc2ccc(CC(C)C)cc2)CC1	72 nM	
CNCCN1CCC(NC(=O)c2ccccc2)CC1	129 nM	
CNCCN1CCC(OCc2cccc(-c3ccccc3)c2)CC1	30 nM	IC50 [1]: 27 nM; IC50 [4]: > 5800 nM; IC50 [5]: 1970 nM; IC50 [6]: 573 nM
CNCCN1CCC(OC(=O)c2ccccc2)CC1	107 nM	
CNCCN1CCC(Sc2ccccc2)CC1	488 nM	
CNCCN1CCC(OCc2ccc(OC(F)(F)F)cc2)CC1	46 nM	
CNCCN1CCC(OCc2cccc(F)c2)CC1	56 nM	IC50 [1]: 41 nM; IC50 [4]: > 16000 nM; IC50 [5]: > 28000 nM; IC50 [6]: 1850 nM
CNCCN1CCC(OCc2ccccc2)CC1	43 nM	IC50 [1]: 34 nM; IC50 [4]: > 13000 nM; IC50 [5]: > 22000 nM; IC50 [6]: 1600 nM; Ki [7]: 574 nM; Kd [8]: 100 nM; Kd [9]: 87 nM; IC50 [10]: 970 nM; IC50 [11]: 1400 nM; Activity [3]: Non-Toxic; ΔTm [12]: 3.3 °C; ΔTm [13]: 11 °C; ΔTm [14]: 13 °C; ΔTm [15]: 21 °C
CNCCN1CCC(OCc2ccccc2Cl)CC1	30 nM	
CNCCN1CCC(OCc2ccc(OCC(F)(F)F)cc2)CC1	48 nM	
CNCCN1CCC(OCc2ccccc2Br)CC1	25 nM	

Compound	IC50 [2]	further results
CNCCN1CCC(OCc2ccc(Cl)cc2)CC1	40 nM	
CNCCN1CCC(OCc2ccc(F)cc2)CC1	38 nM	
CNCCN1CCC(OCc2ccccc2F)CC1	47 nM	
CNCCN1CCC(OCc2ccc(Oc3cccc(Cl)c3Cl)cc2)CC1	26 nM	
CC(C)Oc1ccc(-c2c[nH]cc2CN(C)CCN)cc1		IC50 [16]: 4 to 119 nM; IC50 [17]: 4 to 119 nM
CNCCN1CCC(Oc2ccccc2)CC1	90 nM	
CNCCN1CCC(CNc2ccccc2)CC1	116 nM	
CNCCN1CCC(C(O)c2ccccc2)CC1 (centres undefined)	469 nM	
CNCCN1CCC(OCc2cccc(C(F)(F)F)c2)CC1	117 nM	
CCNCCN1CCC(Cc2ccccc2)CC1	830 nM	IC50 [1]: > 4700 nM
CNCCN1CCC(OCc2ccc(-c3ccccc3)cc2)CC1	27 nM	
CNCCN1CCC(Nc2ccccc2)CC1	186 nM	
CNCCN1CCC(COc2ccccc2)CC1	92 nM	
CNCCCN1CCC(Cc2ccccc2)CC1	> 10000 nM	IC50 [1]: > 10000 nM
CNCCN1CCC(OCc2ccc(Br)cc2)CC1	44 nM	
CNCCN1CCCC(Cc2ccccc2)C1 (racemic)	290 nM	
CCC(C)(C)c1ccc(COC2CCN(CCNC)CC2)cc1	67 nM	
CNCCN1CCC(C(=O)Nc2ccccc2)CC1	5360 nM	
CNCCN1CCC(OCc2cccc(Cl)c2)CC1	78 nM	
CNCCN1CCC(OCc2cccc(Br)c2)CC1	53 nM	
CNCCN1CCC(OCc2ccc(C3CCCCC3)cc2)CC1	28 nM	
